Measurements as given in patent US20090281129A1, “CDKI PATHWAY INHIBITORS AND USES THEREOF” (Senex Biotechnology, Inc., priority 2006, published 2009).
“Also recorded” adds a separate entry of the source.

Tests used:
Type in all cases: cell-based
HT1080 p21-9 cells = assay: FACS analysis of DNA content (cell cycle distribution) in HT1080 p21-9 cells; settings: 18 hrs; for increase in the G1 fraction relative to cells treated with IPTG alone: 20 μM compound added simultaneously with 50 μM IPTG; for decrease in the G2 fraction of IPTG-treated cells: 20 μM compound with 50 μM IPTG; for increase in the G1 fraction: 20 μM compound, in the absence of IPTG
Description: We have analyzed the effect of SNX2-class compounds on cell cycle distribution of p21-arrested HT1080 p21-9 cells. Upon p21 induction, these cells are known to arrest both in G1 and in G2 (Chang et al., Oncogene 19, 2165-2170), which is illustrated in FIG. 9 by a reduction in the S-phase but not in the G1 or G2 fractions of cells treated with 50 μM IPTG for 18 hrs, relative to IPTG-untreated cells (as determined by FACS analysis of DNA content in DAPI-stained cells). 20 μM concentrations of SNX2 or SNX14 produce a small increase in the G1 fraction in the absence of IPTG (4% increase with SNX2 and 5% increase with SNX14) (FIG. 9). However, when SNX2 and SNX14 were added simultaneously with IPTG, they produced a much greater increase in the G1 fraction relative to cells treated with IPTG alone (19% increase with SNX2 and 22% increase with SNX14) (FIG. 9).

[1] = target: T1, NFκB (p50 or p65 subunits) (Homo sapiens, UniProt P19838+Q04206); assay: TransAM NFκB p65 / p50 Chemi transcription factor assay (oligonucleotide binding); settings: for TNFα-induced NFκB activity: TNFα-treated cells; for basal NFκB activity: control cells
T1 construct: endogenous in cells
T1 sequence (P19838 1-433 limits assumed): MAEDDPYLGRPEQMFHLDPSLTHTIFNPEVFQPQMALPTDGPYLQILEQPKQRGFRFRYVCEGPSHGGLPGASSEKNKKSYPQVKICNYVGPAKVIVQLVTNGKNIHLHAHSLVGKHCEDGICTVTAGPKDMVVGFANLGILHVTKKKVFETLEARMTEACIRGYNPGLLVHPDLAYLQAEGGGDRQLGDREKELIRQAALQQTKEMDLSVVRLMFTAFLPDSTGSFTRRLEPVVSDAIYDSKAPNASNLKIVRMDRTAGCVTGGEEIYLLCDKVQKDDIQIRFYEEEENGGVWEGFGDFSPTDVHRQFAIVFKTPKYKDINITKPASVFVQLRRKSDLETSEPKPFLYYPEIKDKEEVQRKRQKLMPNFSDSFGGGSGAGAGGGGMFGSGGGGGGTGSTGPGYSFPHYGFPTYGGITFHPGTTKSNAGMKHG
T1 sequence (Q04206 whole entry): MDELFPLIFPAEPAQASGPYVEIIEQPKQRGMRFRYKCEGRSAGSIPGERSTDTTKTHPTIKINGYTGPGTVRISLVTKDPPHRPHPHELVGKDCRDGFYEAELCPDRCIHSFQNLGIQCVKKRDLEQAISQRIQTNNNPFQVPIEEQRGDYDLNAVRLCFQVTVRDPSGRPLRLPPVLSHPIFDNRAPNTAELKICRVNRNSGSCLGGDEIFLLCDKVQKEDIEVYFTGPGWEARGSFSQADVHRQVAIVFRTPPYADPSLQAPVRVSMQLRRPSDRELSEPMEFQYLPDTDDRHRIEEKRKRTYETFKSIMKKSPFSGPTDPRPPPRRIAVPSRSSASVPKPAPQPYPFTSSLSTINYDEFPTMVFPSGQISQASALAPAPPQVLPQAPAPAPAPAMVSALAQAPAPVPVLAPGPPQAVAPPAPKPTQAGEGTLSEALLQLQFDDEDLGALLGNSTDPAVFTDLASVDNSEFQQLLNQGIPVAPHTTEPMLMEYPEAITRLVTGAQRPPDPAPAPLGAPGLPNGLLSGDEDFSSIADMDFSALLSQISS
Excerpt: The left set of bars represents cells treated with carrier control, the middle set represents cells treated with SNX2, and the right set represents cells treated with a known inhibitor of NFκB binding (TPCK).
We also tested if these compounds could act as the inhibitors of NFκB, by measuring cellular levels of p50 or p65 subunits binding oligonucleotides containing NFκB consensus binding site, using ACTIVE MOTIF TransAM™ NFκB p65 Chemi and NFκB p50 Chemi Transcription Factor Assay Kits.

[2] = tested on: normal human WI-38 fibroblasts; assay: Doxorubicin-induced senescent phenotype (SA-β-gal) in WI-38 fibroblasts; settings: senescence induced by 200 nM doxorubicin
Description: We have correlated the ability of SNX2-class compounds to inhibit the induction of CDKI-responsive genes with their effect on the senescent phenotype, induced in normal human WI-38 fibroblasts by treatment with 200 nM doxorubicin.

[3] = tested on: HT1080 p21-9 cells co-cultured with C8 mouse fibroblast line; assay: Paracrine antiapoptotic activity of p21-expressing HT1080 p21-9 cells, survival of C8 cells in low-serum media; settings: p21 induction for three days in presence of compound; C8 survival after 3 days in 0.5% serum, luciferase assay
Excerpt: We have also tested if SNX2-class compounds can inhibit paracrine tumor-promoting activities of CDKI-expressing cells. In the assay shown in FIG. 12, HT1080 p21-9 cells were either untreated or treated with p21-inducing IPTG, alone or in the presence of three SNX2-class compounds (SNX2, SNX14 and SNX38). After three days, cells were trypsinized, washed to remove residual compounds, and 3×10^3 cell aliquots of each sample were mixed (in 6 replicates) with 10^4 cell aliquots of C8 mouse fibroblast line, which is highly susceptible to apoptosis in low-serum media. (To detect C8 cells in co-culture, we had transduced them with a vector expressing firefly luciferase.) The next day after plating the mixtures in 96-well plates (in 10% serum and in the absence of IPTG or compounds), cells were exposed to low-serum (0.5%) media, and the relative number of surviving C8 cells was measured after 3 days by the luciferase assay.

HT1080 p27-2 cells = assay: FACS cell cycle analysis in HT1080 p27-2 cells with IPTG-inducible p27; settings: 20 μM compound, 24-hour treatment
Description: IPTG induces dose-dependent increase in the G1 fraction with a corresponding decrease in S and G2/M. The doses of IPTG used in this experiment induce G1 arrest at levels that are lower than the maximal levels that are produced by 50-100 μM IPTG, where >80% of cells are in G1.

[4] = tested on: CDKI-responsive promoter of cellular NK4 gene; assay: NK4-luciferase reporter in HT1080 p21-9 cells, prevention and reversal of p21-induced transcription; settings: for induction of NK4-luciferase by p21 (reversal): compound added after two days of IPTG treatment; for induction of NK4-luciferase by p21: compound added simultaneously with IPTG
Description: The compounds show pronounced dose-dependent inhibition of transcription by p21, but they have only a marginal effect on the promoter function when p21 is not induced. […] In this experiment, HT1080 p21-9 cells that express firefly luciferase from a CDKI-responsive promoter of cellular NK4 gene were cultured with IPTG for two days, which is sufficient for near-maximal induction of NK4.

Structure (SMILES) | increase in the G1 fraction relative to cells treated with IPTG alone (HT1080 p21-9 cells) [%] | decrease in the G2 fraction of IPTG-treated cells (HT1080 p21-9 cells) [%] | increase in the G1 fraction (HT1080 p21-9 cells) [%] | TNFα-induced NFκB activity [1] | basal NFκB activity [1] | binding of NFκB proteins p50 or p65 to double-stranded DNA oligonucleotide comprising NFκB binding site ([1]; control or TNFα-treated cells) | expression of senescence marker SA-β-gal [2] | morphological changes associated with cell senescence [2] | p21-induced increase of C8 cell survival (paracrine antiapoptotic activity) [3] | effect on sub-maximal G1 arrest induced by IPTG (p27) (HT1080 p27-2 cells) | induction of NK4-luciferase by p21 (reversal) [4] | induction of NK4-luciferase by p21 [4]
CCCNc1ncnc2ccc(Br)cc12 [SNX2] | 19 | 6 | 4 | no significant effect | no significant effect | does not inhibit | block this phenotype | diminish | significantly diminished | – | – | –
CC(C)Nc1ncnc2ccc(I)cc12 [SNX14] | 22 | 7 | 5 | – | – | – | block this phenotype | diminish | significantly diminished; also recorded: strongest effect | strongly augmented | – | –
COCCCNc1ncnc2ccc(I)cc12 [SNX38] | – | – | – | – | – | – | – | – | significantly diminished | – | reverses; also recorded: strongly decreased | prevents; also recorded: strongly decreased
Cc1c(Cl)cccc1NC(=O)CCN1CCN(Cc2ccccc2)CC1 [SNX63] | – | – | – | – | – | – | – | – | – | – | not two days later | inhibited transcription
Cc1ccc(S(=O)(=O)N[C@@H](Cc2ccccc2)C(=O)CCl)cc1 [TPCK, reference compound] | – | – | – | completely blocks | completely blocks | – | – | – | – | – | – | –
